This is an account of results in US10231954B2, “Neurodegenerative therapies” (LYTIX BIOPHARMA AS, priority 2014, dated 2019).

Holding throughout (type): biochemical
The target of experiment [1] is DYRK1A (Homo sapiens, UniProt Q13627). As to the kind of experiment: Determination of IC50 values against DYRK1a. The following applies: average of duplicate; 10 concentrations 100 μM to 0.003 μM; read-out: IC 50 against DYRK1a. As to the method: The kinase assay was carried out using Multidrop 384's at room temperature in a total assay volume of 25.5 μl. To plates containing 0.5 μl of compounds, DMSO controls or acid blanks, 15 μl of an enzyme mix containing the DYRK1a enzyme and peptide/protein substrate in buffer was added. Compounds were pre-incubated in the presence of the enzyme and peptide/protein substrate for 5 minutes before initiation of the reaction by addition of 10 μl of ATP (final concentration selected for each kinase at 5, 20 or 50 μM). Assays were carried out for 30 minutes at room temperature before termination by the addition of 5 μl orthophosphoric acid. The assay plates were then harvested onto P81 Unifilter Plates by a Packard Harvester (wash buffer is 50 mM orthophosphoric acid) and dried in air. The dry Unifilter plates were then sealed by the addition of MicroScint O and counted in Packard Topcount NXT scintillation counters.

The target in experiment [2] is MKK1 (Homo sapiens, UniProt Q02750). The experiment in a line: Kinase profiling MKK1. The following applies: 100 micromolar inhibitor concentration; 100 is no change. The text has this:
(§1) Any value less that 25 is considered to be highly significant inhibition.

The target in experiment [3] is JNK1 (Homo sapiens, UniProt P45983). The experiment in a line: Kinase profiling JNK1. The following applies: 100 micromolar inhibitor concentration; 100 is no change.
Chain of JNK1 (P45983 whole entry, species assumed): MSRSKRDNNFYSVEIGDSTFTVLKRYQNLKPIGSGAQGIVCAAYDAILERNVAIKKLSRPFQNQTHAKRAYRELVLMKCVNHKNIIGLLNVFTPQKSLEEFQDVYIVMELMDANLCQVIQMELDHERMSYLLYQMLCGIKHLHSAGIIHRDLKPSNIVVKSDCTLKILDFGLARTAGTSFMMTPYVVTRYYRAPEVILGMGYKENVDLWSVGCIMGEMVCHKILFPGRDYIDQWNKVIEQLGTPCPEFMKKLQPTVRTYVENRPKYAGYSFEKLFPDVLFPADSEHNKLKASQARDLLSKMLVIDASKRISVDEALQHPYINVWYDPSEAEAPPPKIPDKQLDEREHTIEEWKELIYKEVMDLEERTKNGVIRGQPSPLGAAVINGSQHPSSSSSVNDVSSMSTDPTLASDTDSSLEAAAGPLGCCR
Text: as §1

The target in experiment [4] is p38a MAPK (Homo sapiens, UniProt Q16539). As to the kind of experiment: Kinase profiling p38a MAPK. The following applies: 100 micromolar inhibitor concentration; 100 is no change.
Chain of p38a MAPK (Q16539 whole entry): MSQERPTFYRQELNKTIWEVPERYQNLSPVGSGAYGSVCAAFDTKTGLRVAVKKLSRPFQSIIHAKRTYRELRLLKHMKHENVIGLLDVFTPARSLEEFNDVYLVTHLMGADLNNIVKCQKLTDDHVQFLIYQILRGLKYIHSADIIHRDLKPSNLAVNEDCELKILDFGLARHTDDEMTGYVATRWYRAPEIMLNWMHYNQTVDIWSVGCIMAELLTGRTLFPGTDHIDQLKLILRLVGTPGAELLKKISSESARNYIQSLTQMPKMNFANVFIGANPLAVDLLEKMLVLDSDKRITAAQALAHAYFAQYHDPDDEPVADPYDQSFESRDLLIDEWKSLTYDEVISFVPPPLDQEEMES
Text: as §1

In experiment [5] the target is RSK1 (Homo sapiens, UniProt Q15418). The experiment in a line: Kinase profiling RSK1. The following applies: 100 micromolar inhibitor concentration; 100 is no change.
Chain of RSK1 (Q15418 whole entry, species assumed): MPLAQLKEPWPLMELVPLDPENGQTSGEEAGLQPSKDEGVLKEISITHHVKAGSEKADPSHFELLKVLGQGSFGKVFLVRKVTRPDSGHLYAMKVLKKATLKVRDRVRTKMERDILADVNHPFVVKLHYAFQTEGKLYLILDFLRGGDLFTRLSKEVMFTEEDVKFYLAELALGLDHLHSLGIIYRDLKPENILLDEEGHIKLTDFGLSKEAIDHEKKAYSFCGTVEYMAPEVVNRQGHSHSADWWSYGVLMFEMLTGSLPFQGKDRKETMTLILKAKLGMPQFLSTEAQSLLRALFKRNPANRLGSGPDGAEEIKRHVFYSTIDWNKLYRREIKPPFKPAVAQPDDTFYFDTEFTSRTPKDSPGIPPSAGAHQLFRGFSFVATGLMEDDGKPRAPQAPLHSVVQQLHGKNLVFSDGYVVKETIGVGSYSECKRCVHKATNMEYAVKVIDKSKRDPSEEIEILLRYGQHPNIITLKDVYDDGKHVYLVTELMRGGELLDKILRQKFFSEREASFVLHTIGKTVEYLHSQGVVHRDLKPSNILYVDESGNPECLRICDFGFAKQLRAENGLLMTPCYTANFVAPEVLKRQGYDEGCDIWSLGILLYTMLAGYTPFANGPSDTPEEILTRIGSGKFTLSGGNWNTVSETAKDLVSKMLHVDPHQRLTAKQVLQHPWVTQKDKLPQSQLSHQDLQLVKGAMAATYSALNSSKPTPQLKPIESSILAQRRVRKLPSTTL
Text: as §1

Experiment [6] has as its target T1, PDK1 (Homo sapiens, UniProt O15530).
T1 sequence (O15530 1-556): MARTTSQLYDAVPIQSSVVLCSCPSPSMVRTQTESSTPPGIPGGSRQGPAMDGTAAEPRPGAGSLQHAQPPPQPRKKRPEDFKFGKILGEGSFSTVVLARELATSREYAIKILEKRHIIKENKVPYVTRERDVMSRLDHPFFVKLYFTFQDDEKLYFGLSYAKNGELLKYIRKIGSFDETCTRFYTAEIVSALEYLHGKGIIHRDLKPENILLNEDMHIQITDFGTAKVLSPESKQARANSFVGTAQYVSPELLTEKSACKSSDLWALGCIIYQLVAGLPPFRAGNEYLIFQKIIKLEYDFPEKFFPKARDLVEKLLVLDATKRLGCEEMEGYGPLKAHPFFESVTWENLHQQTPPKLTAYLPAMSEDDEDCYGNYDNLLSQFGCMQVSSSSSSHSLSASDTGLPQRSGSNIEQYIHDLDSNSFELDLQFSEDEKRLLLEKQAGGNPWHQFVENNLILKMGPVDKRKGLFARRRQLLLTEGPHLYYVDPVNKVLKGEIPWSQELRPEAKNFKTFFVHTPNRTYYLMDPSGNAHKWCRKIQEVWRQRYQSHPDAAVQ
As to the kind of experiment: Kinase profiling PDK1. The conditions noted are these: 100 micromolar inhibitor concentration; 100 is no change.
Text: as §1

Experiment [7] deals with PKBa (Homo sapiens, UniProt P31749). The experiment in a line: Kinase profiling PKBa. The following applies: 100 micromolar inhibitor concentration; 100 is no change.
Chain of PKBa (P31749 whole entry): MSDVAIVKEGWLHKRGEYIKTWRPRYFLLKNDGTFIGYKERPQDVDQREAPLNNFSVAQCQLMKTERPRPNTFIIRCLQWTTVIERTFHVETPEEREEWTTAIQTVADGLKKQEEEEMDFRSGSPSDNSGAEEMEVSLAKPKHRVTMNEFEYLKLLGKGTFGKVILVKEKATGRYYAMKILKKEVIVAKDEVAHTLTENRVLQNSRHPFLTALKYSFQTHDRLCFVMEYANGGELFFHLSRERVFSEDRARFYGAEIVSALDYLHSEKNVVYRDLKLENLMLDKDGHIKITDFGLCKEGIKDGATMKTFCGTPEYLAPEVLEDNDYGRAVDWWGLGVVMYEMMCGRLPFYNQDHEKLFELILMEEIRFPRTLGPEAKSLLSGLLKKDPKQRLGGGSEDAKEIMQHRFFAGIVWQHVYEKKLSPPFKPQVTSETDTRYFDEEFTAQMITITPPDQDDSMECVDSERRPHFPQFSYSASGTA
Text: as §1

Experiment [8] addresses T2, SGK1 (Homo sapiens, UniProt O00141).
T2 sequence (O00141 1-431): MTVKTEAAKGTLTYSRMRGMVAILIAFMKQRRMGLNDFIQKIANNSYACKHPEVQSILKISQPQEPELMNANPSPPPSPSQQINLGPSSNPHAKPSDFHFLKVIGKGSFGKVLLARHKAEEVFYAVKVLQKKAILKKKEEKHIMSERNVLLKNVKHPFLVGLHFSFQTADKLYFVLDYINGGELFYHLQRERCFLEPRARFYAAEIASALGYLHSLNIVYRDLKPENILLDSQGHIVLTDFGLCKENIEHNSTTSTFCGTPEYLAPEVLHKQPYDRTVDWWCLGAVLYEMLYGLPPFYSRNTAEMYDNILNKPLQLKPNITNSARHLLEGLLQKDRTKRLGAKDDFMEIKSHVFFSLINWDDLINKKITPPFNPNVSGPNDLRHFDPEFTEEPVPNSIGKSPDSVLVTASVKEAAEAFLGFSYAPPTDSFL
The experiment in a line: Kinase profiling SGK1. The conditions noted are these: 100 micromolar inhibitor concentration; 100 is no change.
Text: as §1

Experiment [9] addresses S6K1 (Homo sapiens, UniProt P23443). As to the kind of experiment: Kinase profiling S6K1. The conditions noted are these: 100 micromolar inhibitor concentration; 100 is no change.
Text: as §1

The target of experiment [10] is PKA (Homo sapiens, UniProt P17612). As to the kind of experiment: Kinase profiling PKA. The conditions noted are these: 100 micromolar inhibitor concentration; 100 is no change.
Text: as §1

For experiment [11], the target named is ROCK 2 (Homo sapiens, UniProt O75116). As to the kind of experiment: Kinase profiling ROCK 2. The conditions noted are these: 100 micromolar inhibitor concentration; 100 is no change.
Chain of ROCK 2 (O75116 whole entry, species assumed): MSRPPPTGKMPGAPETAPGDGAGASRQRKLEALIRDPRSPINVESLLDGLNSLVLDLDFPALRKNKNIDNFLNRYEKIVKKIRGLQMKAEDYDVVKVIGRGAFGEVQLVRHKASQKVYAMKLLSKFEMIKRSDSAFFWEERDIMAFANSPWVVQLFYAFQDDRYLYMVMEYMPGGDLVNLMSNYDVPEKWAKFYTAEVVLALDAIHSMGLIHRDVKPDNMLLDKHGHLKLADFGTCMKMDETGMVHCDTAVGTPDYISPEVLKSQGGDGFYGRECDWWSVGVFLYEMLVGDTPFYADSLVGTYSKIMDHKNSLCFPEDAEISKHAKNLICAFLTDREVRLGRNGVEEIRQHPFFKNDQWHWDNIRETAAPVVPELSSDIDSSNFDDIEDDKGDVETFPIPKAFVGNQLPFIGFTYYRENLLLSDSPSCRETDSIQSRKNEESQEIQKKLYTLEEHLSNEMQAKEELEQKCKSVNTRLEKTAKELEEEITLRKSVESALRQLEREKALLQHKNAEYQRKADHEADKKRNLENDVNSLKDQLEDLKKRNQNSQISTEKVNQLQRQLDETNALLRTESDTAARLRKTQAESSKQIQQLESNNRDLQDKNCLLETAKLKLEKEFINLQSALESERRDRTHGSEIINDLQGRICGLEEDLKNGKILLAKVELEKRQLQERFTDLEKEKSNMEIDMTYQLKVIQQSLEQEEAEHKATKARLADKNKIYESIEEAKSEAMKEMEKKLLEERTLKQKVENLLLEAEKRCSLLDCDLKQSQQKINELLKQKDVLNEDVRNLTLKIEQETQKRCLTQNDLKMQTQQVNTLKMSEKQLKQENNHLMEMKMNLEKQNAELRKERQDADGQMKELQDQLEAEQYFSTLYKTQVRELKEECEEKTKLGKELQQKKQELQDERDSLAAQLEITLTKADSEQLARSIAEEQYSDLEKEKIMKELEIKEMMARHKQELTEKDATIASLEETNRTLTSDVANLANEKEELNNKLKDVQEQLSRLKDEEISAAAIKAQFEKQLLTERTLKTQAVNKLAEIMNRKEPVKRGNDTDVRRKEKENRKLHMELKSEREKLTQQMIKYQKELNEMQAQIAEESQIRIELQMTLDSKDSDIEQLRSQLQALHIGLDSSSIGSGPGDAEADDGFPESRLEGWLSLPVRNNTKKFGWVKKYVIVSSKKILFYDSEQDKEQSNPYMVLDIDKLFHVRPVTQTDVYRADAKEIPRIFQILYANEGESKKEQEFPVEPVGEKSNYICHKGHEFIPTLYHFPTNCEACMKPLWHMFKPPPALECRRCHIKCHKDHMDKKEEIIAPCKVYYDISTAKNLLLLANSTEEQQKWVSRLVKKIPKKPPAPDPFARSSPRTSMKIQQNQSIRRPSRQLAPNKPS
Text: as §1

For experiment [12], the target named is PRK2 (Homo sapiens, UniProt Q16513). The experiment in a line: Kinase profiling PRK2. The following applies: 100 micromolar inhibitor concentration; 100 is no change.
Chain of PRK2 (Q16513 whole entry, species assumed): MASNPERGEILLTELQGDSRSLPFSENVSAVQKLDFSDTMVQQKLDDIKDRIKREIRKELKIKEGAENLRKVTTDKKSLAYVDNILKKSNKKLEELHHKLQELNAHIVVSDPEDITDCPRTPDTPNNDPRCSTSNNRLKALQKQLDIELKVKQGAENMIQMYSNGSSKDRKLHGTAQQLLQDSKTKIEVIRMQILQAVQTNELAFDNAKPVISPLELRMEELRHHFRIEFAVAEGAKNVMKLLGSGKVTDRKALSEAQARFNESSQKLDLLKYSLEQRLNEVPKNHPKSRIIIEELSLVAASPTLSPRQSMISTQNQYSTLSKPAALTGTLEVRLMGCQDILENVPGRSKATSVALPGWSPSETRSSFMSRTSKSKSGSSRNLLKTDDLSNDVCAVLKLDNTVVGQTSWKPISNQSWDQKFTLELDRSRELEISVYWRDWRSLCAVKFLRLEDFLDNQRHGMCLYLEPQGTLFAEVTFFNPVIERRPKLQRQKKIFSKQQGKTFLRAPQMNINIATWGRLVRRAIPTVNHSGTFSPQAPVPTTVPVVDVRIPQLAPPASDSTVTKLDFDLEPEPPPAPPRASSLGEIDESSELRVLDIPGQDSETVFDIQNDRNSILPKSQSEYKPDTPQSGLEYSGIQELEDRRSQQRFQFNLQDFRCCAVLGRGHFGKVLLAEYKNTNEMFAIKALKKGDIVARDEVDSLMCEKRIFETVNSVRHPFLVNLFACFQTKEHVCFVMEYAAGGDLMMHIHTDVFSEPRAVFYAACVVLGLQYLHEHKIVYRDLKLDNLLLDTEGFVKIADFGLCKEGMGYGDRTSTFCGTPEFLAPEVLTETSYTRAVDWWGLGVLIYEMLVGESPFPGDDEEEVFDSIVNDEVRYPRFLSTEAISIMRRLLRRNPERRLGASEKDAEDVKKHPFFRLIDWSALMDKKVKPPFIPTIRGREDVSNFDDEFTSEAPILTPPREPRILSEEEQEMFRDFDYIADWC
Text: as §1

The target in experiment [13] is PKCa (Homo sapiens, UniProt P17252). As to the kind of experiment: Kinase profiling PKCa. The conditions noted are these: 100 micromolar inhibitor concentration; 100 is no change.
Text: as §1

For experiment [14], the target named is T3, PKD1 (Homo sapiens, UniProt Q15139).
T3 sequence (Q15139 1-912): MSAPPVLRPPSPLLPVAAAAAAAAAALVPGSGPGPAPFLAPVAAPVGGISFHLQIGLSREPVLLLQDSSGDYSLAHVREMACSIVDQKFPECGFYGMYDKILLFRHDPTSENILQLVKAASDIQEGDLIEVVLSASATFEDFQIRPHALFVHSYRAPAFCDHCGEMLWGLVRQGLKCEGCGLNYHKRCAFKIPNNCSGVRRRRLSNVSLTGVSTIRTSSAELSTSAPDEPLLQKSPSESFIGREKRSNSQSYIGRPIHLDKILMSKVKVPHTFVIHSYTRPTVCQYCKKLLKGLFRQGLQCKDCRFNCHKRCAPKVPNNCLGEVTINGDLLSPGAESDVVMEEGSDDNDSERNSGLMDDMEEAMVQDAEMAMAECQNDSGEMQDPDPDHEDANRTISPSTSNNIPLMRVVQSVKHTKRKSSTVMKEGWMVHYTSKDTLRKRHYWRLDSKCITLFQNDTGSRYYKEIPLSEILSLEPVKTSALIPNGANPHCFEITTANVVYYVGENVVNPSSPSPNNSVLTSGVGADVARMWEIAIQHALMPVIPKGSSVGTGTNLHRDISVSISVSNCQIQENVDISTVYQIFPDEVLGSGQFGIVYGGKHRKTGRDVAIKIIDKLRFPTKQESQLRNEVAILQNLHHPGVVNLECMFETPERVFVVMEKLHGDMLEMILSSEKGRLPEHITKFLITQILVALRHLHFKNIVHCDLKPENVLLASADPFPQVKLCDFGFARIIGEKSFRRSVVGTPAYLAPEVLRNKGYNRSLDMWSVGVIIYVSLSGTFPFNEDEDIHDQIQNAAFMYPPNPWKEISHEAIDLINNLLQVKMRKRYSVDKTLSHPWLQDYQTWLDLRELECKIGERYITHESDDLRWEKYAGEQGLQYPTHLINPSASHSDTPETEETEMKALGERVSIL
The experiment in a line: Kinase profiling PKD1. The following applies: 100 micromolar inhibitor concentration; 100 is no change.
Text: as §1

Chain of MKK1 (Q02750 whole entry, species assumed): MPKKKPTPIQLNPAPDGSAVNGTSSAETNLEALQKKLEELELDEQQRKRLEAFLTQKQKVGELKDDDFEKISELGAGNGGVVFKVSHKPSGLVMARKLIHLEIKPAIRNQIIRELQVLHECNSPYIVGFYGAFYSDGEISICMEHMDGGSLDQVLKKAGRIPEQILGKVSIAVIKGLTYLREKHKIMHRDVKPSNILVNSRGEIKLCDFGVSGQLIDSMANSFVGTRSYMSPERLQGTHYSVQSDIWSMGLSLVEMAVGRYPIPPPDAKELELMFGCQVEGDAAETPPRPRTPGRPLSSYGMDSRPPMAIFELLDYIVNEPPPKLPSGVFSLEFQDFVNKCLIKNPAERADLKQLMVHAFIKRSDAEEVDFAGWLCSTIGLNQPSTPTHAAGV

For `COc1ccc2nc(NC(C)=O)sc2c1` [Compound 03-20], in experiment [1], the IC50 was found to be 12.3 µM.

Take `CC(=O)Nc1ccc(C(=O)Nc2nc3ccc(O)cc3s2)cc1` [Compound 03-74]: the “residual kinase activity, MKK1” value in experiment [2] is recorded as 35. Besides, in [3], the “residual kinase activity, JNK1” value was found to be 80. Besides, the “residual kinase activity, p38a MAPK” value in [4] is given as 106. In addition, the “residual kinase activity, RSK1” value in experiment [5] was 19. In addition, in experiment [6], the “residual kinase activity, PDK1” value came out at 93. In experiment [7], the “residual kinase activity, PKBa” value is on record as 87. In addition, the “residual kinase activity, SGK1” value in experiment [8] is given as 59. For the same molecule, in [9], the “residual kinase activity, S6K1” value came out at 29. In addition, the “residual kinase activity, PKA” value in [10] was found to be 90. Further, the “residual kinase activity, ROCK 2” value in [11] came to 32. The “residual kinase activity, PRK2” value in experiment [12] is given as 54. Further, the “residual kinase activity, PKCa” value in experiment [13] is recorded as 92. Further, the “residual kinase activity, PKD1” value in experiment [14] turned out to be 53.

For `CC(=O)Nc1nc2ccc(C(N)=O)cc2s1` [Compound 08-70], the IC50 in experiment [1] came to 15.7 µM.
